This is an account of results in patent US10407467B2, “Polymyxin derivatives and their use in combination therapy together with different antibiotics” (priority 2013, dated 2019).

The test system of data set [1] is Klebsiella pneumoniae ATCC10031. The following applies: 10 mg/kg/day, neutropenic mice thigh infection.
The conditions of data set [2]: rats, 8 mg/kg BID regimen, seven days, compared to Colistin at the same dose regimen. The procedure: After one week acclimatisation, male Sprague-Dawley rats were surgically prepared with a jugular cannula and were housed individually, as required, either in pre-assigned housing cages or metabolic cages. Colistin and the Example Compounds were prepared in saline.
Compounds were introduced via the jugular cannula twice a day 7 hours apart for seven days. Each dose was increased progressively for three days up to the top dose that was then administered until termination of the study. Twenty-four hour urine collection (on ice) was performed at pre-dose and on days 4 and 7. The dose regimen is set out in Table 10 below.
The doses in the table are indicated in mg drug base/kg (free base).
The activity in urine of the N-acetyl-beta-D-glucosaminidase (NAG) was determined spectrophotometrically using the NAG assay kit from Roche Applied Science. Biomarkers of kidney injury were determined using the Kidney Injury Panel II from the Multi-Spot® Assay System (Meso Scale Discovery).

Another data set has as its system HK-2 cell line. The data set can be described thus: In vitro renal cell toxicity assay (resazurin reduction). Format: cell-based, human. The following applies: HK-2 cells, 24 h, resazurin reduction; mean values of up to 6 independent studies. (In general: The colour change of resazurin is a common sign of viable cells or microbes.)
The next data set has as its system E. coli ATCC25922. The procedure:
Mice were rendered temporarily neutropenic by immunosuppression with cyclophosphamide at 150 mg/kg 4 days before infection and 100 mg/kg 1 day before infection by intraperitoneal injection.
Compounds were administered in solution by intravenous (IV) injection into the lateral tail vein. […] The vehicle control group was treated with vehicle (0.9% saline for injection) also at 10 mL/kg IV thrice at 1, 3.5 and 6 hours post infection.
(§1) At 1 hour post infection, 4 animals were humanely euthanized using pentabarbitone overdose to provide a pre-treatment control group. At 9 hours post infection, the clinical condition of all animals was assessed prior to them being humanely euthanized by pentabarbitone overdose. Animal weight was determined before both thighs were removed and weighed individually. Individual thigh tissue samples were homogenized in ice cold sterile phosphate buffered saline. Thigh homogenates were then quantitatively cultured onto CLED agar and incubated at 37° C. for 24 hours before colonies were counted.

The next data set concerns P. aeruginosa ATCC27853. It is filed as in vivo, Pseudomonas aeruginosa. The following applies: 1:1 with rifampicin at a total dose of 5 mg/kg, IV at 1, 3.5 and 6 hours. The procedure: as §1, with “Compounds were administered in solution by intravenous (IV) bolus injection into the lateral tail vein. […] At 1” for “At 1”

Like-named read-outs stand apart in the source and are kept apart here. Marks after values point to notes of the source that are not given here. Bridge positions count the residues as written; N and C are the ends. Square brackets hold non-standard residues; d marks the D form. Peptide text beside a SMILES is read from it. * marks the point of attachment. ξ: configuration not given here. ξβ3hGly(cHex) = NC(CC(=O)*)C1CCCCC1; Thr(3ξ) = CC(O)[C@H](N)C(=O)O; Dab = NCC[C@H](N)C(=O)O

On to `CC(C)C[C@@H]1NC(=O)[C@@H](Cc2ccccc2)NC(=O)[C@H](CCN)NC(=O)[C@@H](NC(=O)[C@H](CCN)NC(=O)[C@@H](NC(=O)CC(N)C2CCCCC2)C(C)O)CCNC(=O)[C@H](C(C)O)NC(=O)[C@H](CCN)NC(=O)[C@H](CCN)NC1=O` (stereo partly drawn) [Example 10, [3(R,S)-3-Amino-3-cyclohexane-propanoyl]Polymyxin B nonapeptide] ({ξβ3hGly(cHex)}-[Thr(3ξ)][Dab][Dab][Dab][dF]L[Dab][Dab][Thr(3ξ)]; lactam 3-C), for which, in data set [1], the “reduction in bacterial counts” value is on record as “approx. 2 log10”. The “levels of the renal biomarkers NAG, albumin and cystatin C in urine” value in data set [2] was “significantly reduced levels”.
As to Polymyxin B [reference compound], the “IC50 HK-2 cells” value with HK-2 cell line is recorded as 11^b μg/mL. The “log reduction in bacterial counts compared to the non-treated control” value in the data set on E. coli ATCC25922 (1:1 combination with Rifampicin at 4 mg/Kg total dose) stood at 4.8 log. Besides, the “Log reduction from vehicle (CFU/g)” value is −0.36 log CFU/g with E. coli ATCC25922 (Table 9, monotherapy 0.125 mg/kg IV at 1, 3.5 and 6 h post infection, 9 h); 1.93 log CFU/g in the data set with E. coli ATCC25922 (Table 9, monotherapy 0.5 mg/kg IV at 1, 3.5 and 6 h post infection, 9 h); 3.61 log CFU/g with E. coli ATCC25922 (Table 12, alone 4 mg/kg (sulfate salt) IV); 0.58 log CFU/g in the data set with P. aeruginosa ATCC 27853 (Table 14, 1 mg/kg (sulfate salt) IV at 1, 3.5 and 6 h, 9 h); 1.67 log CFU/g in the data set with P. aeruginosa ATCC 27853 (Table 14, 2 mg/kg (sulfate salt) IV at 1, 3.5 and 6 h, 9 h); 5.09 log CFU/g in the data set with P. aeruginosa ATCC 27853 (Table 14, 4 mg/kg (sulfate salt) IV at 1, 3.5 and 6 h, 9 h). In addition, the “Log reduction from vehicle (CFU/g)” value is −0.12 log CFU/g with P. aeruginosa ATCC 27853 (Table 15, 1 mg/kg (sulfate salt) IV, 9 h); 1.40 log CFU/g in the data set with P. aeruginosa ATCC 27853 (Table 15, 2 mg/kg (sulfate salt) IV, 9 h); 3.41 log CFU/g in the data set with P. aeruginosa ATCC 27853 (Table 15, 4 mg/kg (sulfate salt) IV, 9 h); 1.19 log CFU/g with P. aeruginosa ATCC 27853 (Table 16, 0.85 mg/kg free base equivalent, infection level ~1×10^4 CFU/mouse thigh); 4.23 log CFU/g in the data set on P. aeruginosa ATCC 27853 (Table 16, 3.4 mg/kg free base equivalent, infection level ~1×10^4 CFU/mouse thigh). In the data set on P. aeruginosa ATCC27853, the “log reduction in bacterial counts compared to non-treated control” value amounted to 5.37 log.
